Test results taken from patent US20230157996A1, “SMALL-MOLECULE INHIBITOR TARGETING EB VIRUS NUCLEAR ANTIGEN PROTEIN, PREPARATION METHOD AND USE THEREOF” (priority 2020, published 2023).

These compounds were tested on C666-1 cells (assay: C666-1 cell viability single concentration (50 μM) inhibition rate (Resazurin)). Settings: Homo sapiens, C6661, 72 h, 50 μM compound, 72 hours, C666-1 cells; read-out: C666-1 cell viability single concentration (50 μM) inhibition rate, Ratio* (Inh %).
Type: cell-based
Experimental: In order to assess the effect of the EBNA1 inhibitor at the cellular level, the cell proliferation inhibition rate was tested, and the inhibition rate of inhibitor at a specific concentration on the proliferation of Epstein-Barr virus positive cell line C666-1 was detected.
In the test, 100 μL C666-1 cells were inoculated in a transparent 96-well plate, and each well contained 5×10^3 cells. After the cells were cultured in an incubator with 5% carbon dioxide at 37° C. for 24 hours, 10 μL compound at a concentration of 500 μmol/L was added into the cells, so that the final concentration of the compound was 50 μmol/L. Two replicate wells were set for each compound, the wells treated with DMSO were set as control wells (Ctrl), and the wells with cell culture medium only were set as blank wells (blank), and they were treated in the incubator with carbon dioxide at 37° C. for 72 hours. The cell viability was assessed using a redox indicator Resazurin. Specifically, 10 μL Resazurin at a concentration of 600 umol/L was added into each well, and incubated at 37° C. for 3 hours, and a Tecan microplate reader was used to detect the fluorescence signal at an excitation wavelength of 560 nm and an emission wavelength of 590 nm. The formula inh %=1−(F−Fblank)/(FCtrl−Fblank)×100% (where, F is the fluorescence intensity of the compound-added wells, FCtrl and Fblank are the readings of the control wells and blank wells, respectively) was used to calculate the inhibition rate of the compound on the proliferation of C666-1 cells, so as to assess the activity of the compound on Epstein-Barr virus positive cells.

SMILES | inhibition at 50 µM [%]
COc1ccc(C(OC(C)=O)C23CC(c4cccc(C(=O)O)c4)(C2)C3)cc1 (stereo not shown) [Compound 1, 3-(3-(acetoxyl(4-methoxyphenyl)methyl)bicyclo[1. 1.1]pentan-1-yl)benzoic acid] | < 10
CC(=O)OC(c1ccc(C(F)(F)F)nc1)C12CC(c3cccc(C(=O)O)c3)(C1)C2 (stereo not shown) [Compound 2, 3-(3-(acetoxyl(6-(trifluoromethyl)pyridin-3-yl)methyl)bicyclo[1.1.1]pentan-1-yl)benzoic acid] | < 10
O=C(O)c1cccc(C23CC(C(O)c4ccc(C(F)(F)F)nc4)(C2)C3)c1 (stereo not shown) [Compound 3, 3-(3-(hydroxyl(6-(trifluoromethyl)pyridin-3-yl)methyl)bicyclo[1.1.1]pentan-1-yl)benzoic acid] | < 10
O=C(O)c1cccc(C23CC(c4ccccc4)(C2)C3)c1 [Compound 4, 3-(3-phenylbicyclo[1.1.1]pentan-1-yl)benzoic acid] | < 10
COC(=O)c1cccc(C23CC(c4ccccc4)(C2)C3)c1-n1cccc1 [Compound 5, Methyl 3-(3-phenylbicyclo[1.1.1]pentan-1-yl)-2-(1H-pyrrol-1-yl)benzoate] | < 10
O=C(O)c1cccc(C23CC(c4ccccc4)(C2)C3)c1-n1cccc1 [Compound 6, 3-(3-phenylbicyclo[1.1.1]pentan-1-yl)-2-(1H-pyrrol-1-yl)benzoic acid] | < 10
COC(=O)c1cccc(C23CC(c4ccc(OC)cc4)(C2)C3)c1-n1cccc1 [Compound 7, Methyl 3-(3-(4-methoxyphenyl)bicyclo[1.1.1]pentan-1-yl)-2-(1H-pyrrol-1-yl)benzoate] | < 10
COc1ccc(C23CC(c4cccc(C(=O)O)c4-n4cccc4)(C2)C3)cc1 [Compound 8, 3-(3-(4-methoxyphenyl)bicyclo[1.1.1]pentan-1-yl)-2-(1H-pyrrol-1-yl)benzoic acid] | < 10
COC(=O)c1cccc(N2CC3(CN(c4ccccc4)C3)C2)c1N [Compound 9, Methyl 2-amino-3-(6-phenyl-2,6-diazaspiro[3.3]heptan-2-yl)benzoate] | 10 to 30
Nc1c(C(=O)O)cccc1N1CC2(CN(c3ccccc3)C2)C1 [Compound 10, 2-amino-3-(6-phenyl-2,6-diazaspiro[3.3]heptan-2-yl)benzoic acid] | < 10
O=C(O)c1cccc(N2CC3(CN(c4ccccc4)C3)C2)c1-n1cccc1 [Compound 11, 3-(6-phenyl-2,6-diazaspiro[3.3]heptan-2-yl)-2-(1H-pyrrol-1-yl)benzoic acid] | < 10
Nc1ccccc1N1CC2(C1)CN(c1cccc(C(=O)O)c1N)C2 [Compound 12, 2-amino-3-(6-(2-aminophenyl)-2,6-diazaspiro[3.3]heptan-2-yl)benzoic acid] | < 10
COC(=O)c1cccc(N2CC3(CN(c4ccc(N)cc4)C3)C2)c1N [Compound 13, Methyl 2-amino-3-(6-(4-aminophenyl)-2,6-diazaspiro[3.3]heptan-2-yl)benzoate] | > 50
Nc1ccc(N2CC3(C2)CN(c2cccc(C(=O)O)c2N)C3)cc1 [Compound 14, 2-amino-3-(6-(4-aminophenyl)-2,6-diazaspiro[3.3]heptan-2-yl)benzoic acid] | < 10
COC(=O)c1cccc(N2CC3(C2)CN(c2cccc(C(=O)OC)c2N)C3)c1 [Compound 15, Methyl 2-amino-3-(6-(3-(methoxycarbonyl)phenyl)-2,6-diazaspiro[3.3]heptan-2-yl)benzoate] | < 10
Nc1c(C(=O)O)cccc1N1CC2(CN(c3cccc(C(=O)O)c3)C2)C1 [Compound 16, 2-amino-3-(6-(3-carboxylphenyl)-2,6-diazaspiro[3.3]heptan-2-yl)benzoic acid] | < 10
COC(=O)c1cccc(N2CC3(C2)CN(c2cccc(C(=O)OC)c2-n2cccc2)C3)c1 [Compound 17, Methyl 3-(6-(3-(methoxycarbonyl)phenyl)-2,6-diazaspiro[3.3]heptan-2-yl)-2-(1H-pyrrol-1-yl)benzoate] | 10 to 30
O=C(O)c1cccc(N2CC3(C2)CN(c2cccc(C(=O)O)c2-n2cccc2)C3)c1 [Compound 18, 3-(6-(3-carboxylphenyl)-2,6-diazaspiro[3.3]heptan-2-yl)-2-(1H-pyrrol-1-yl)benzoic acid] | < 10
COC(=O)c1cccc(N2CC3(CN(c4ccccc4N)C3)C2)c1-n1cccc1 [Compound 19, Methyl 3-(6-(2-aminophenyl)-2,6-diazaspiro[3.3]heptan-2-yl)-2-(1H-pyrrol-1-yl)benzoate] | > 50

SMILES | inhibition at 50 µM [%]
Nc1ccccc1N1CC2(C1)CN(c1cccc(C(=O)O)c1-n1cccc1)C2 [Compound 20, 3-(6-(2-aminophenyl)-2,6-diazaspiro[3.3]heptan-2-yl)-2-(1H-pyrrol-1-yl)benzoic acid] | < 10
COC(=O)c1cccc(N2CC3(CN(c4ccccc4[N+](=O)[O-])C3)C2)c1-n1cccc1 [Compound 21, Methyl 3-(6-(2-nitrophenyl)-2,6-diazaspiro[3.3]heptan-2-yl)-2-(1H-pyrrol-1-yl)benzoate] | 10 to 30
O=C(O)c1cccc(N2CC3(CN(c4ccccc4[N+](=O)[O-])C3)C2)c1-n1cccc1 [Compound 22, 3-(6-(2-nitrophenyl)-2,6-diazaspiro[3.3]heptan-2-yl)-2-(1H-pyrrol-1-yl)benzoic acid] | < 10
COC(=O)c1ccc(N2CC3(C2)CN(c2cccc(C(=O)OC)c2-n2cccc2)C3)cc1 [Compound 23, Methyl 3-(6-(4-(methoxycarbonyl)phenyl)-2,6-diazaspiro[3.3]heptan-2-yl)-2-(1H-pyrrol-1-yl)benzoate] | < 10
O=C(O)c1ccc(N2CC3(C2)CN(c2cccc(C(=O)O)c2-n2cccc2)C3)cc1 [Compound 24, 3-(6-(4-carboxylphenyl)-2,6-diazaspiro[3.3]heptan-2-yl)-2-(1H-pyrrol-1-yl)benzoic acid] | < 10
COC(=O)c1cccc(N2CC3(CN(c4cccc([N+](=O)[O-])c4)C3)C2)c1[N+](=O)[O-] [Compound 25, Methyl 3-(6-(3-nitrophenyl)-2,6-diazaspiro[3.3]heptan-2-yl)-2-nitrobenzoate] | 10 to 30
O=C(O)c1cccc(N2CC3(CN(c4cccc([N+](=O)[O-])c4)C3)C2)c1[N+](=O)[O-] [Compound 26, 3-(6-(3-nitrophenyl)-2,6-diazaspiro[3.3]heptan-2-yl)-2-nitrobenzoic acid] | < 10
COC(=O)c1cccc(N2CC3(CN(c4cccc(NS(C)(=O)=O)c4)C3)C2)c1[N+](=O)[O-] [Compound 27, Methyl 3-(6-(3-(methylsulfonamido)phenyl)-2,6-diazaspiro[3.3]heptan-2-yl)-2-nitrobenzoate] | < 10
CS(=O)(=O)Nc1cccc(N2CC3(C2)CN(c2cccc(C(=O)O)c2[N+](=O)[O-])C3)c1 [Compound 28, 3-(6-(3-(methylsulfonamido)phenyl)-2,6-diazaspiro[3.3]heptan-2-yl)-2-nitrobenzoic acid] | < 10
COC(=O)c1cccc(N2CC3(CN(c4cccc(NC(C)=O)c4)C3)C2)c1N [Compound 29, Methyl 3-(6-(3-acetylaminophenyl)-2,6-diazaspiro[3.3]heptan-2-yl)-2-aminobenzoate] | 10 to 30
CC(=O)Nc1cccc(N2CC3(C2)CN(c2cccc(C(=O)O)c2N)C3)c1 [Compound 30, 3-(6-(3-acetylaminophenyl)-2,6-diazaspiro[3.3]heptan-2-yl)-2-aminobenzoic acid] | < 10
COC(=O)c1cccc(N2CC3(CN(c4cccc(NS(=O)(=O)C5CC5)c4)C3)C2)c1N [Compound 31, Methyl 2-amino-3-(6-(3-(cyclopropylsulfonamido)phenyl)-2,6-diazaspiro[3.3]heptan-2-yl)benzoate] | 10 to 30
Nc1c(C(=O)O)cccc1N1CC2(CN(c3cccc(NS(=O)(=O)C4CC4)c3)C2)C1 [Compound 32, 2-amino-3-(6-(3-(cyclopropylsulfonamido)phenyl)-2,6-diazaspiro[3.3]heptan-2-yl)benzoic acid] | < 10
COC(=O)c1cccc(N2CC3(CN(c4cccc(N)c4)C3)C2)c1N [Compound 33, Methyl 2-amino-3-(6-(3-aminophenyl)-2,6-diazaspiro[3.3]heptan-2-yl)benzoate] | 10 to 30
Nc1cccc(N2CC3(C2)CN(c2cccc(C(=O)O)c2N)C3)c1 [Compound 34, 2-amino-3-(6-(3aminophenyl)-2,6-diazaspiro[3.3]heptan-2-yl)benzoic acid] | < 10
O=C(O)c1cccc(N2CC(Oc3ccc(CO)cc3)C2)c1 [Compound 35, 3-(3-(4-(hydroxymethyl)phenoxy)azetidin-1-yl)benzoic acid] | 10 to 30
Nc1c(C(=O)O)cccc1N1CC(Oc2ccc(CO)cc2)C1 [Compound 36, 2-amino-3-(3-(4-(hydroxymethyl)phenoxy)azetidin-1-yl)benzoic acid] | < 10
COC(=O)c1cccc(N2CC(Oc3ccc(CO)cc3)C2)c1-n1cccc1 [Compound 37, Methyl 3-(3-(4-(hydroxymethyl)phenoxy)azetidin-1-yl)-2-(1H-pyrrol-1-yl)benzoate] | 30 to 50
